Patent publication US20070009377A1, “Methods for Reducing Pathogens in Biological Samples” (priority 2005, published 2007)

Key:
[1] = test system: apheresis platelet concentrates; assay: In vitro cell quality tests of stored platelets after riboflavin + UV light treatment (clinical study one); type: cell-based, human
Procedure: The platelet concentrate with a volume of 250 mL was transferred into a 3-litre polyolefin bag (Sengewald, Rohrdorf, Germany), followed by addition of 27 mL sterile 500 μM riboflavin so that the final concentration in the product was ca. 50 μM. The platelet products were then exposed to UV light (phosphor 265-370 nm) at either a medium dose level (7.2 J/ml) or high dose level (12.4 J/ml). Total illumination time varied from approximately 5-10 minutes with agitation at a temperature of 25-30° C. After treatment, platelet products were transferred into a citrated polyvinyl chloride ELP™ bag (Gambro BCT, Lakewood, Colo.). The treated and control PCs were stored for an additional 5 days at 20-24° C. under standard blood bank conditions. Control platelet products were prepared in the same manner as the treated counterparts except no riboflavin was added and no UV light treatment was performed.
Platelet samples were taken for lab tests at day 0, 3 and 5 of platelet storage using aseptic technique and analysis was completed within 2 hours. The in vitro cell quality tests for platelet count, swirl score, pH, pO2, pCO2, lactate and glucose were performed per standard operating procedures (SOPs) of the trial site. Hypotonic shock response (HSR) and P-selectin expression were measured as described by Ruane et al. (Ruane P H, Edrich R, Gampp D et al. Photochemical inactivation of selected viruses and bacteria in platelet concentrates using riboflavin and light. Transfusion 2004;44:877-85.)
Following Ethical Committee approval and notification of the MCC, the competent authority of South Africa, a total of 18 platelet products were collected with yields ranging from 2.9 to 3.8×10^11 platelets using standard Trima apheresis procedures. Products were treated in a polyolefin container, Sengewald bag, with UV light at either a medium UV dose (7.2 J/ml; N=5) or a high UV dose (12.4 J/ml; N=6) in the presence of 50 μM riboflavin on the day of collection. An additional seven products served as controls which were not treated with UV light. All treated and control PC products were transferred to and stored in ELP™ bags under normal blood bank conditions for 5 days post-apheresis collection. At day 0 (pre-treatment), day 3 and day 5 of storage, the samples from all PC products were measured for pH, pO2, pCO2, lactate and glucose concentrations, P-selectin, HSR and platelet swirl. […] UV treatment also accelerated an increase in P-selectin expression and decreases in HSR and swirl score during platelet storage. It appears that the severity of these changes during platelet storage were in direct proportion to the levels of UV dose applied.

platelets = assay: In vivo radiolabeled platelet recovery after infusion into the autologous donor (clinical study one); design: species or system human; conditions: after 5-day storage
Procedure: At the end of the 5-day storage period, a small aliquot of the platelets was radiolabeled with ^111Indium, according to the study site's SOP (in agreement with local and international standards for radiolabeling of human platelets). The labeling procedure was performed after formation of ^111In-tropolonate through mixing of ^111Indium chloride (Amersham) with tropolone. If the pH of the platelet samples to be labeled was>6.5, it was brought down to 6.5 to prevent irreversible aggregation of platelets during pelleting.
After washing and resuspension in plasma, a radiolabeled aliquot was infused into the autologous donor. The total radioactivity that was given to a subject in this study was less than 8 MBq. Blood samples for radioactivity counting were collected 15 minutes, 1 hour and 2-3 hours after infusion, twice (AM and PM) on day 1 post-infusion and once on days 2-6 post-infusion. After correcting for 2-hour radioelution as described by Holme, et al., (Holme S, Heaton A, Roodt J. Concurrent label method with 111In and 51Cr allows accurate evaluation of platelet viability of stored platelet concentrates. Br J Haematol 1993;84:717-23.) in vivo radiolabeled platelet recovery and survival values were calculated by the COST computer program using the multiple-hit model. […]

pO2 ([1]; 50 μM riboflavin + high UV dose (12.4 J/ml), Day 0 (pre-treatment)): 95 +/− 19 mmHg
pO2 ([1]; 50 μM riboflavin + high UV dose (12.4 J/ml), Day 3): 83 +/− 22 mmHg
pO2 ([1]; 50 μM riboflavin + high UV dose (12.4 J/ml), Day 5): 88 +/− 30 mmHg
pO2 ([1]; 50 μM riboflavin + medium UV dose (7.2 J/ml), Day 0 (pre-treatment)): 60 +/− 15 mmHg
pO2 ([1]; 50 μM riboflavin + medium UV dose (7.2 J/ml), Day 3): 82 +/− 24 mmHg
pO2 ([1]; 50 μM riboflavin + medium UV dose (7.2 J/ml), Day 5): 68 +/− 17 mmHg
Structure (SMILES): Cc1cc2nc3c(=O)[nH]c(=O)nc-3n(C[C@H](O)[C@H](O)[C@H](O)CO)c2cc1C [riboflavin, 7,8-dimethyl-10-ribityl isoalloxazine]
average in vivo recovery of infused platelets (platelets; 50 μM riboflavin + high dose of UV light (12.4 J/ml)): 14%
average in vivo recovery of infused platelets (platelets; 50 μM riboflavin + medium dose of UV light (7.2 J/ml)): 30%
